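Values below derive from 48-hour exposures of cells grown in 96-well plates, with endpoints linearly interpolated between the two concentrations bracketing the appropriate inhibition level. GI50 = concentration required for 50% inhibition of growth. The concentration for full growth arrest is given as TGI.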
Experiments:
Assay in all cases: NCI tumour cell line growth inhibition, 48 h
[1] = test system: RXF 393 renal
[2] = test system: UACC-62 melanoma
[3] = test system: SF-295 CNS
[4] = test system: OVCAR-8 ovarian
[5] = test system: A549 NSCLC
[6] = test system: NCI-H226 lung
[7] = test system: HCT-116 colon
[8] = test system: SF-268 CNS
[9] = test system: UO-31 renal
[10] = test system: K-562 leukemia
[11] = test system: M14 melanoma

| SMILES | TGI [1] | TGI [2] | TGI [3] | TGI [4] | TGI [5] | TGI [6] | TGI [7] | TGI [8] | TGI [9] | TGI [10] | GI50 [1] | GI50 [2] | GI50 [3] | GI50 [5] | GI50 [6] | GI50 [8] | GI50 [9] | GI50 [10] | TGI [11] |
| --- | --- | --- | --- | --- | --- | --- | --- | --- | --- | --- | --- | --- | --- | --- | --- | --- | --- | --- | --- |
| O=C1C=C(C2OC(CO)C(O)C2O)C(=O)N1 (configuration not stated) | > 100 µM | > 100 µM | > 100 µM | > 100 µM | > 100 µM | > 100 µM | > 100 µM | > 100 µM | > 100 µM | > 100 µM | – | – | – | – | – | – | – | – | – |
| CCCC(C)c1ccc(OCCCCCCN2CCNCC2)cc1 (configuration not stated) | 3 µM | 3.71 µM | 3.44 µM | – | 4.34 µM | 35.8 µM | – | 9.89 µM | 20.3 µM | 3.97 µM | 1.55 µM | 1.95 µM | 1.82 µM | 1.9 µM | 9.26 µM | 2.97 µM | 4.32 µM | 1.51 µM | – |
| N#C[S-].[La+3].c1cnc2c(c1)ccc1cccnc12.c1cnc2c(c1)ccc1cccnc12.c1cnc2c(c1)ccc1cccnc12 | – | 4.8 µM | 7.94 µM | 11.5 µM | 10.6 µM | 4.63 µM | 10.2 µM | 18.9 µM | 10.5 µM | > 100 µM | – | – | – | – | – | – | – | – | 3.57 µM |
| OC(CC1CCCCN1)c1ccc2c(c1)oc1ccccc12 (configuration not stated) | > 100 µM | 44.7 µM | > 100 µM | > 100 µM | > 100 µM | > 100 µM | > 100 µM | > 100 µM | > 100 µM | > 100 µM | – | – | – | – | – | – | – | – | 45 µM |
| CC1(C)[C@@H]2CC[C@]1(C)[C@H](OC(=O)CSC#N)C2 | > 100 µM | > 100 µM | > 100 µM | > 100 µM | > 100 µM | > 100 µM | > 100 µM | > 100 µM | > 100 µM | – | – | – | – | – | – | – | – | – | > 100 µM |
| COc1cc2c(cc1O)c(O)cc1c3cc(OC)c(OC)cc3c[n+](C)c21 | > 100 µM | > 100 µM | > 100 µM | > 79 µM | > 100 µM | > 25.6 µM | > 100 µM | > 100 µM | > 100 µM | > 80.5 µM | – | – | – | – | – | – | – | – | > 100 µM |
| Cc1ccc2c(ccc(/C=C/c3ccc(O)c4ncccc34)[n+]2C)c1 | 37.8 µM | 46.5 µM | 34.9 µM | 24 µM | 44.1 µM | 46.5 µM | 24.3 µM | 22 µM | > 49.3 µM | 83.4 µM | – | – | – | – | – | – | – | – | 40.3 µM |
| O=C(c1ccccc1)c1ccc2n[se]nc2c1 | > 100 µM | > 100 µM | 37 µM | > 100 µM | > 100 µM | – | – | > 100 µM | > 100 µM | > 100 µM | – | – | – | – | – | – | – | – | > 100 µM |
| CN(C)/C=C/C(=CC=[N+](C)C)/C=C/N(C)C | > 100 µM | > 100 µM | > 100 µM | > 100 µM | > 100 µM | > 100 µM | > 100 µM | > 100 µM | > 100 µM | > 100 µM | – | – | – | – | – | – | – | – | > 100 µM |
| CCC1C[N+]23CCc4c([nH]c5ccccc45)C2CC1CC3 (configuration not stated) | > 100 µM | > 100 µM | > 100 µM | > 100 µM | – | > 100 µM | > 100 µM | > 100 µM | > 100 µM | > 100 µM | – | – | – | – | – | – | – | – | > 100 µM |
| CN(C)CCNC(=O)c1cccc2c(=O)c3ccccc3oc12 | > 100 µM | > 76.2 µM | 98.9 µM | > 83.5 µM | > 100 µM | 76.5 µM | > 100 µM | > 100 µM | 55 µM | > 100 µM | – | – | – | – | – | – | – | – | – |
| CCOP(=Nc1ccc(N(C)C)cc1)(OCC)OCC | > 100 µM | > 100 µM | > 100 µM | > 100 µM | > 100 µM | – | > 100 µM | > 100 µM | > 100 µM | > 100 µM | – | – | – | – | – | – | – | – | > 100 µM |
| OC(CNc1ccccn1)c1ccccc1 (configuration not stated) | > 100 µM | > 100 µM | > 100 µM | > 100 µM | > 100 µM | > 100 µM | > 100 µM | > 100 µM | > 100 µM | > 100 µM | – | – | – | – | – | – | – | – | > 100 µM |
| Cc1ccc(S(=O)(=O)Nc2cccc3c(=O)[nH]cnc23)cc1 | > 100 µM | > 100 µM | > 100 µM | > 100 µM | > 100 µM | > 100 µM | > 100 µM | > 100 µM | > 100 µM | > 100 µM | – | – | – | – | – | – | – | – | > 100 µM |
| CC(=O)C(C(c1ccccc1)N1CCOCC1)N1CCOCC1 (configuration not stated) | > 100 µM | > 100 µM | > 100 µM | > 100 µM | > 100 µM | > 100 µM | > 100 µM | > 100 µM | > 100 µM | > 100 µM | – | – | – | – | – | – | – | – | > 100 µM |
| CC1=C2C(O)C(C(C)C(=O)N(C)C)CCC2(C)C=CC1=O (configuration not stated) | > 100 µM | > 100 µM | > 100 µM | > 100 µM | > 100 µM | > 100 µM | > 100 µM | > 100 µM | > 100 µM | > 100 µM | – | – | – | – | – | – | – | – | – |
